In the oligonucleotide strings, read from the 5' end, every base follows the letter of its sugar. An asterisk marks phosphorothioate; unmarked linkages are phosphodiester. Other units and linkages are bracketed, terminal groups are in braces. A string of capitals states the bases alone. e = 2'-O-(2-methoxyethyl) (MOE); [5mC] = 5-methylcytosine; d = 2'-deoxy (DNA)
Legend:
[1] = Tolerability in CD1 mice: organ weight (Example 17); format: in vivo; settings: 50 mg/kg s.c. twice a week, 2 weeks, vs PBS control, normalized to body weight
Method: Three days after the last dose was administered to all groups, the mice were sacrificed.

[2] = Cynomolgus monkeys: hematology assays (Example 29); format: in vivo
Method: Groups, each consisting of two male and three female monkeys, were injected subcutaneously with ISIS 416838, ISIS 416850, ISIS 416858, ISIS 416864, or ISIS 417002 in escalating doses. Antisense oligonucleotide was administered to the monkeys at 5 mg/kg three times per a week for week 1; 5 mg/kg twice per week for weeks 2 and 3; 10 mg/kg three times per week for week 4; 10 mg/kg twice per week for weeks 5 and 6; 25 mg/kg three times per week for week 7; and 25 mg/kg twice per week for weeks 8, 9, 10, 11, and 12. One control group, consisting of two male and three female monkeys, was injected subcutaneously with PBS according to the same dosing regimen. An additional experimental group, consisting of two male and three female monkeys, was injected subcutaneously with ISIS 416850 in a chronic, lower dose regimen. Antisense oligonucleotide was administered to the monkeys at 5 mg/kg three times per week for week 1; 5 mg/kg twice per week for week 2 and 3; 10 mg/kg three times per week for week 4; and 10 mg/kg twice per week for weeks 5 to 12. Body weights were measured weekly. Blood samples were collected 14 days and 5 days before the start of treatment and subsequently once per week for Factor XI protein activity analysis in plasma and measurement of various hematologic factors. On day 85, the monkeys were euthanized by exsanguination while under deep anesthesia, and organs harvested for further analysis.
The ISIS oligonucleotide, ISIS 416850, given with the chronic dose regimen is distinguished from the other oligonucleotides with an asterisk (*).

[3] = test system: DSS-induced colitis model; assay: Colitis Study B: body weight and colon length; format: in vivo, Swiss Webb mice
Method: In a first group of 8 Swiss Webb mice, 20 mg/kg of ISIS 404071 was injected subcutaneously twice a week for 3 weeks. In a second group of 8 Swiss Webb mice, 20 mg/kg of ISIS 404057 was subcutaneously injected twice a week for 3 weeks. In a third control group of 8 Swiss Webb mice, 20 mg/kg of ISISI 421208 was injected subcutaneously twice a week for 3 weeks. Two control groups of 8 mice each were injected with PBS twice a week for 3 weeks. After the oligonucleotide treatment, 4% DSS in water was administered ad libitum for 6 days to all the experimental groups and one PBS control group.
Mice in all groups were weighed at day 0 and daily after administration of DSS. Mice were sacrificed at the end of the study on day 7 after DSS was administered, their livers and colons were harvested for RNA analysis, and their body weights and colon lengths were measured.

[4] = test system: OVA/alum-induced asthma model; assay: OVA-induced asthma model: mucus production (Example 13); format: in vivo, BALB/c mice
Method: The mice were divided into four treatment groups of 5 mice each. One group received subcutaneous injections of ISIS 404071 at a dose of 50 mg/kg twice a week for 4 weeks. One group of mice received subcutaneous injections of control oligonucleotide, ISIS 421208, which is a mismatch oligonucleotide sequence of ISIS 404071, at a dose of 50 mg/kg twice a week for 4 weeks. Two groups of mice received subcutaneous injections of PBS twice a week for 4 weeks. One PBS group remained untreated and served as the control group. The second PBS group and both the oligonucleotide treated groups were injected with OVA/alum on days 0 and 14 and nebulized with OVA in PBS on days 24, 25, and 26. The first OVA application served to sensitize the mice against OVA while the second was a challenge application to provoke an asthmatic reaction. Two days following the final dose, the mice were euthanized, bronchial lavage (BAL) was collected and analyses done.
Lung sections were stained with periodic acid […] (PAS) base stain that stains mucus, which is produced during asthma attacks (Rogers, D. F. Curr. Opin Pharmacol. 2004. 4: 241-250). The number of airways containing mucus as a percentage of the total airways in the lungs was evaluated.

[5] = test system: DSS-induced colitis model; assay: Colitis Study A: DSS-induced colitis, body weight and colon length (Example 12); format: in vivo, Swiss Webb mice; settings: for colon length (in words): FIG. 7C
Method: The effect of antisense oligonucleotide inhibition of Factor XI and its role in ameliorating colitis was evaluated in a dextran sulfate sodium (DSS)-induced colitis model. Administration of DSS to animals is a well known method to induce […] and has been previously described by Okayasu et al. (Gastroenterology, 1990, 98:694-702), Cooper et al. (Lab Invest, 1993, 69:238-249) and Dieleman et al. (Clin Exp Immunol, 1998, 114:385-391).
In groups of 8 Swiss Webb mice, 20 mg/kg of ISIS 404071 or ISIS 403102 were injected subcutaneously twice a week for 3 weeks. Two control groups of 8 mice each were injected with PBS twice a week for 3 weeks. After the oligonucleotide treatments, 4% DSS in water was administered ad libitum for 6 days to the experimental groups and one PBS control group.
Mice in all groups were weighed at day 0. Mice were sacrificed at the end of the study on day 7 after DSS was administered and their body weights and colon lengths were measured. Results are presented in Table 24 (expressed as a percentage of the PBS control) and FIG. 7.
Colon length was assessed in the DSS-induced colitis mice.

[6] = DSS-induced colitis, day 7, 20 mg/kg s.c. twice a week for 3 weeks, percent change compared to the PBS control
[7] = DSS-induced colitis, day 7, 20 mg/kg s.c. twice a week for 3 weeks, expressed as a percentage of the PBS control

For “416850 (antisense TGCACAGTTTCTGGCAGGCC; 5-10-5 gapmer, wing sugar chemistry not given here, further chemistry not given here) [compound 416850]”, the “Percent change in kidney weight” value [1] was −10%.

With “ISIS 416850: gapmer of Table 8 (antisense eT*eG*e[5mC]*eA*e[5mC]*dA*dG*dT*dT*dT*d[5mC]*dT*dG*dG*d[5mC]*eA*eG*eG*e[5mC]*e[5mC])” the platelet count ([2]; day 8) was 548000 µL⁻¹, the platelet count ([2]; day 8, chronic dose regimen (*)) was 401000 µL⁻¹ and the platelet count ([2]; day 15) was 559000 µL⁻¹. For the same substance, the platelet count ([2]; day 15, chronic dose regimen (*)) was 396000 µL⁻¹, the platelet count ([2]; day 22) was 466000 µL⁻¹ and the platelet count ([2]; day 22, chronic dose regimen (*)) was 347000 µL⁻¹. The platelet count ([2]; day 29) was 475000 µL⁻¹, the platelet count ([2]; day 29, chronic dose regimen (*)) was 370000 µL⁻¹ and the platelet count ([2]; day 36) was 505000 µL⁻¹. It also gave a platelet count ([2]; day 36, chronic dose regimen (*)) of 379000 µL⁻¹, a platelet count ([2]; day 43) of 490000 µL⁻¹ and a platelet count ([2]; day 43, chronic dose regimen (*)) of 391000 µL⁻¹. The platelet count ([2]; day 50) was 487000 µL⁻¹, the platelet count ([2]; day 50, chronic dose regimen (*)) was 351000 µL⁻¹ and the Monocytes ([2]; day 57) was “n.d. 3.2%”. The platelet count ([2]; day 57) was 528000 µL⁻¹, the Monocytes ([2]; day 64) was “n.d. 3.5%” and the platelet count ([2]; day 64) was 496000 µL⁻¹. The Monocytes ([2]; day 71) was “n.d. 4.7%”, the platelet count ([2]; day 71) was 465000 µL⁻¹ and the Monocytes ([2]; day 78) was “n.d. 4.5%”. For the same substance, the platelet count ([2]; day 78) was 449000 µL⁻¹, the Monocytes ([2]; day 85) was “n.d. 3.5%” and the platelet count ([2]; day 85) was 458000 µL⁻¹. For the same substance, the platelet count ([2]; day −5) was 573000 µL⁻¹, the platelet count ([2]; day −5, chronic dose regimen (*)) was 434000 µL⁻¹ and the platelet count ([2]; day −14) was 528000 µL⁻¹. It also gave a platelet count ([2]; day −14, chronic dose regimen (*)) of 387000 µL⁻¹.

In the case of “TGGTAATCCACTTTCAGAGG (eT*eG*eG*eT*eA*dA*dT*d[5mC]*d[5mC]*dA*d[5mC]*dT*dT*dT*d[5mC]*eA*eG*eA*eG*eG) [ISIS 404071, 5-10-5 MOE gapmer targeting murine Factor XI, target start site 869]”, the “body weight (in words)” value ([3]; Colitis Study B, FIG. 9) is reported as “did not have any significant change in body weight”, the Body weight [3, 6] is reported as −10% and the Colon length [3, 6] is reported as −11%. For the same substance, the “mucus production in the lungs (in words)” value [4] was “decreased mucus production in the lungs”, the “Mucus production, % airways containing mucus” value ([4]; BALB/c mice, 50 mg/kg s.c. twice a week for 4 weeks, PAS stain of lung sections) was 34 % airways and the “body weight (in words)” value ([5]; Colitis Study A, FIG. 7A/7B) was “did not have any significant change in body weight”. For the same substance, the “colon length (in words)” value ([5]; Colitis Study A, listed as Factor XI ASO) was “had no significant change in colon length”, the “colon length (in words)” value ([5]; Colitis Study A, listed as Factor XI oligonucleotide) was “decreased the amount of colon shortening” and the Body weight change [5, 7] was −2%. For the same substance, the Colon length change [5, 7] was −13%.

— patent publication US20120083522A1, “MODULATION OF INFLAMMATORY RESPONSES BY FACTOR XI” (Isis Pharmaceuitcals, inc., priority 2009, published 2012)
